Measurements from paper PMC7447621, “Chemoenzymatic synthesis of daptomycin analogs active against daptomycin-resistant strains” (Applied Microbiology and Biotechnology, 2020).
Several values for one entry are separate records, joined by “and”; a condition that tells them apart may be missing. Identical values can stand only once. Numbered stars: 1 amine (or outer) side, 2 acyl side, 3 side chain; on linkers, the order of the positions; unused ones are H or OH. Bridge positions count the residues as written; N and C are the ends. Square brackets hold non-standard residues; d marks the D form. Peptide text beside a SMILES is read from it. * marks the point of attachment. X5 = C=C(C)/C=C/C(C)c1[nH]c2ccccc2c1C[C@H](N[*:1])C(=O)[*:2]; X1 = O=C([C@H](Cc1c[nH]c2cc(CC3=CCCCC3)ccc12)N[*:1])[*:2]; X3 = C=C/C=C/Cc1[nH]c2ccccc2c1C[C@H](N[*:1])C(=O)[*:2]; Glu(3R-Me) = C[C@H](CC(=O)O)[C@H](N)C(=O)O; Kyn = Nc1ccccc1C(=O)C[C@H](N)C(=O)O; Decanoyl = CCCCCCCCCC(=O)*; Orn = NCCC[C@H](N)C(=O)O

Key:
[1] = format: physicochemical
Text: These differences in activity could be due to differences between the structures of Dap and its analogs either in complex with Gram-positive membranes or in their unbound form. However, with no three-dimensional structure data for the analogs, only conjecture can be offered as to the cause. […] [2004]; Jung et al. [2004]), the benzene ring of Trp is thought to stick out away from the peptide core and lie roughly parallel to the main axis of the acyl tail. […] [2017]), which also suffered from a decrease in activity compared with its N1-normal-prenylated regioisomer. Conversely, the diene moieties attached at the C2 position are prone to conjugate addition reactions which would prevent the proper binding conformation or even enable degradation pathways. Therefore, to check their stability, all purified Dap analogs were reinjected on RP-HPLC after their structural and activity characterization (see Supporting Information Fig. S3). […] While future kinetic and engineering studies will likely answer these questions, the SAR identified in this study will inform future Dap development efforts using the […]-based diversification scheme.

S. aureus (ATCC 25923) = settings: DapS strain; MIC90, broth microdilution, MHB + 50 mg L^−1 calcium, inoculum 1×10^5–5×10^5 CFU/mL, 35 °C, 22 h, A600, triplicate; converted from μM
[2] = system: S. aureus (MRSA, ATCC 700787); settings: DapS, MIC90, broth microdilution, MHB + 50 mg L^−1 calcium, 35 °C, 22 h, A600, triplicate
[3] = system: S. epidermidis (ATCC 12228); settings: DapS; MIC90, broth microdilution, MHB + 50 mg L^−1 calcium, 35 °C, 22 h, A600, triplicate
[4] = system: E. faecalis (hVRE, ATCC 700802); settings: for MIC: DapS, VRE, MIC90, broth microdilution, MHB + 50 mg L^−1 calcium, 35 °C, 22 h, A600, triplicate
S. aureus (hVISA, SR220) = settings: DapS, VISA, BEI NR-50512; MIC90, broth microdilution, MHB + 50 mg L^−1 calcium, 35 °C, 22 h, A600, triplicate
[5] = system: S. aureus (hVISA, SR3777); settings: DapS, BEI NR-50509; MIC90, broth microdilution, MHB + 50 mg L^−1 calcium, 35 °C, 22 h, A600, triplicate
[6] = system: S. aureus (hVISA, SR4035); settings: DapS, BEI NR-50510; MIC90, broth microdilution, MHB + 50 mg L^−1 calcium, 35 °C, 22 h, A600, triplicate
E. faecalis (S613) = settings: DapS, BEI HM-334; MIC90, broth microdilution, MHB + 50 mg L^−1 calcium, 35 °C, 22 h, A600, triplicate
E. faecalis (R712) = settings: DapR, BEI HM-335; MIC90, broth microdilution, MHB + 50 mg L^−1 calcium, 35 °C, 22 h, A600, triplicate
[7] = system: S. aureus (SAUSA300_1713 NE573); settings: DapR, strain JE2 transposon mutant NE573, BEI NR-47116; MIC90, broth microdilution, MHB + 50 mg L^−1 calcium, 35 °C, 22 h, A600, triplicate
[8] = system: S. aureus (SAUSA300_1715 NE1656); settings: DapR, strain JE2 transposon mutant NE1656, BEI NR-48198; MIC90, broth microdilution, MHB + 50 mg L^−1 calcium, 35 °C, 22 h, A600, triplicate

Row | SMILES | stability of the purified product (RP-HPLC chromatogram) [1] | MIC (S. aureus (ATCC 25923)) [µg/mL] | MIC [2] [µg/mL] | MIC [3] [µg/mL] | MIC [4] [µg/mL] | MIC (S. aureus (hVISA, SR220)) [µg/mL] | MIC [5] [µg/mL] | MIC [6] [µg/mL] | MIC (E. faecalis (S613)) | MIC (E. faecalis (R712)) [µg/mL] | MIC [7] [µg/mL] | MIC [8] [µg/mL] | fold enhanced activity (compared with Dap) ([4]; vancomycin-resistant Enterococcus, Table 1, Fig. S1) | MIC range (DapR S. aureus; DapR S. aureus strains (Table 1), range over the named analogs and strains) [µg/mL] | fold improvement in antibacterial activity over Dap (DapR S. aureus; DapR S. aureus, relative potency, Fig. S1)
1 | C=C/C=C/Cc1[nH]c2ccccc2c1C[C@H](NC(=O)CCCCCCCCC)C(=O)N[C@H](CC(N)=O)C(=O)N[C@@H](CC(=O)O)C(=O)N[C@@H]1C(=O)NCC(=O)N[C@@H](CCCN)C(=O)N[C@@H](CC(=O)O)C(=O)N[C@H](C)C(=O)N[C@@H](CC(=O)O)C(=O)NCC(=O)N[C@H](CO)C(=O)N[C@@H]([C@H](C)CC(=O)O)C(=O)N[C@@H](CC(=O)c2ccccc2N)C(=O)O[C@@H]1C [compound 45, C2-15-Dap] (Decanoyl-[X3][dN]DTG[Orn]D[dA]DG[dS][Glu(3R-Me)][Kyn]; ester 4-C) | significant degradation | 16.9 | >33.7 | 16.9 | 33.7 | 33.7 | 16.9 | >33.7 | >8.4 µg/mL | >8.4 | >8.4 | >8.4 |  |  | 
2 | C=C(C)/C=C/C(C)c1[nH]c2ccccc2c1C[C@H](NC(=O)CCCCCCCCC)C(=O)N[C@H](CC(N)=O)C(=O)N[C@@H](CC(=O)O)C(=O)N[C@@H]1C(=O)NCC(=O)N[C@@H](CCCN)C(=O)N[C@@H](CC(=O)O)C(=O)N[C@H](C)C(=O)N[C@@H](CC(=O)O)C(=O)NCC(=O)N[C@H](CO)C(=O)N[C@@H]([C@H](C)CC(=O)O)C(=O)N[C@@H](CC(=O)c2ccccc2N)C(=O)O[C@@H]1C (stereo partly drawn) [compound 47, C2R-18-Dap] (Decanoyl-[X5][dN]DTG[Orn]D[dA]DG[dS][Glu(3R-Me)][Kyn]; ester 4-C) |  | >34.3 | >34.3 | 34.3 | 34.3 | >34.3 | 34.3 |  | >34.3 µg/mL | >34.3 | >34.3 | >34.3 |  |  | 
3 | CCCCCCCCCC(=O)N[C@@H](Cc1c[nH]c2cc(CC3=CCCCC3)ccc12)C(=O)N[C@H](CC(N)=O)C(=O)N[C@@H](CC(=O)O)C(=O)N[C@@H]1C(=O)NCC(=O)N[C@@H](CCCN)C(=O)N[C@@H](CC(=O)O)C(=O)N[C@H](C)C(=O)N[C@@H](CC(=O)O)C(=O)NCC(=O)N[C@H](CO)C(=O)N[C@@H]([C@H](C)CC(=O)O)C(=O)N[C@@H](CC(=O)c2ccccc2N)C(=O)O[C@@H]1C [compound 52, C6-20-Dap] (Decanoyl-[X1][dN]DTG[Orn]D[dA]DG[dS][Glu(3R-Me)][Kyn]; ester 4-C) |  |  |  |  |  | 0.5 |  |  | 0.3 to 0.6 µg/mL and 0.4 µg/mL | 6.2 | 0.4 | 0.2 | 5–15 fold | 0.2 to 0.5 | 30–80 fold
